Source: ChEMBL document CHEMBL1157862, “Synthesis and pharmacological evaluation of novel fused thiophene derivatives as 5-HT2A receptor antagonists: molecular modeling study” (Eur J Med Chem, 2010)

What follows are compounds tested against 5-hydroxytryptamine receptor 2A (Rattus norvegicus) (UniProt P14842) (assay: Antagonist activity at 5HT2A receptor in Sprague-Dawley rat assessed as inhibition of 5HT-induced pulmonary arterial pressure at 100 uM relative to 5HT).
Assay type: functional

5-hydroxytryptamine receptor 2A (Rattus norvegicus), sequence (P14842 whole entry): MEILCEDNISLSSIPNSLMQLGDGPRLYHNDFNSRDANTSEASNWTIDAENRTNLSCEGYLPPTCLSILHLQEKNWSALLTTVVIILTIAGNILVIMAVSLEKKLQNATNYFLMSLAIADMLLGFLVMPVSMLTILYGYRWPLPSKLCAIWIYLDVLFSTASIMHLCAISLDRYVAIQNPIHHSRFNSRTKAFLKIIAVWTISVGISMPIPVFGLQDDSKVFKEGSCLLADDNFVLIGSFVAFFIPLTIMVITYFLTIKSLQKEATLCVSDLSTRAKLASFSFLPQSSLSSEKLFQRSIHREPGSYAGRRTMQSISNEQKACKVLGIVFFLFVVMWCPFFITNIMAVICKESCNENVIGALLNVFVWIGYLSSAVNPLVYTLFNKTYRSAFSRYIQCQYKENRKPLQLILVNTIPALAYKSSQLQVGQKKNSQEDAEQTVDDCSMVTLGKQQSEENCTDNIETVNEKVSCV

Structure (SMILES) | inhibition [%]
CN1CCc2c(sc3[nH]c(=O)n(CCN4CCN(c5ccccc5)CC4)c(=O)c23)C1 | 60
O=c1[nH]c2sc3c(c2c(=O)n1CCN1CCN(c2ccccc2)CC1)CCC3 | 86
CN1CCc2c(sc3[nH]c(=O)n(CCN4CCN(c5ccc(F)cc5)CC4)c(=O)c23)C1 | 63
COc1ccccc1N1CCN(CCn2c(=O)[nH]c3sc4c(c3c2=O)CCN(C)C4)CC1 | 65

Next, values leading:

inhibition [%] | Structure (SMILES)
88 | CCOC(=O)c1c(NC(=O)CN2CCN(c3ccccc3OC)CC2)sc2c1CCN(C)C2
65 | CCOC(=O)c1c(NC(=O)CN2CCN(c3ccccc3OCC)CC2)sc2c1CCN(C)C2
62 | CCOC(=O)c1c(NC(=O)CN2CCN(c3ccccc3)CC2)sc2c1CCN(C)C2
